# Measurements as given in patent US20040005997A1, “Methods for identifying compounds for regulating muscle mass of function using amylin receptors” (The Procter & Gamble Company, priority 2002, published 2004).
# Tests used:
# [1] = tested on: leg casting disuse atrophy model; experiment: leg casting disuse atrophy model; format: in vivo, mouse
# Method: Legend: A—physiological saline (control); B—amylin (0.1 mg/kg)+theophylline; C—amylin (0.3 mg/kg)+theophylline; D—amylin (1.0 mg/kg)+theophylline; *—p≦0.05 compared to saline. Following casting of the right hind leg, male mice were injected subcutaneously in the midscapular region twice daily, with amylin or vehicle control (physiological saline) for ten days at the daily delivered dose indicated. Amylin was co-administered with twice daily intra-peritoneal dosing of the phosphodiesterase inhibitor theophylline (30 mg/kg). On day ten, the medial gastrocnemius and tibialis anterior muscles were removed and weighed to determine the degree of atrophy.
# The leg casting disuse atrophy model involves casting one hind leg of an animal from the knee down through the foot. Typically, muscle mass is reduced 20-40% after ten days of casting. Following casting, test compounds are administered by injection or by continuous infusion via implantation of an osmotic minipump (e.g., Alzet, Palo Alto, Calif.) to determine their effect on leg casting induced skeletal muscle atrophy. At various times following leg casting, the extent of atrophy in the affected muscles is analyzed as described above for the denervation model.
# [2] = tested on: mouse sciatic nerve denervation atrophy model; experiment: mouse sciatic nerve denervation atrophy model; format: in vivo
# Method: Legend: A—non-denervated medial gastrocnemius muscle from mice treated with physiological saline (non-atrophied control); B—denervated medial gastrocnemius muscle from mice treated with physiological saline (atrophied control); C—amylin (0.03 mg/kg)+theophylline; D—amylin (0.1 mg/kg)+theophylline; E—amylin (0.3 mg/kg)+theophylline. * —p≦0.05 compared to saline. Following denervation of the right sciatic nerve, male mice were injected subcutaneously in the midscapular region twice daily with amylin, at the doses indicated above or vehicle control (physiological saline) for nine days. […] On day nine, the medial gastrocnemius muscle was removed and weighed to determine the degree of atrophy.
# The sciatic nerve denervation atrophy model involves anesthetizing the animal followed by the surgical removal of a short segment of either the right or left sciatic nerve, e.g., in mice the sciatic nerve is isolated approximately at the midpoint along the femur and a 3-5 mm segment is removed. This denervates the lower hind limb musculature resulting in atrophy of these muscles. Typically, innervation to the biceps femoris is left intact to provide satisfactory motion of the knee for virtually normal ambulation. […] The extent of atrophy in the affected muscles is analyzed, for example, by measuring muscle mass, muscle cross-sectional area, myofiber cross-sectional area or contractile protein content.
# [3] = tested on: mouse glucocorticoid-induced atrophy model; experiment: mouse glucocorticoid-induced atrophy model; format: in vivo
# Method: Legend: A—water only with no dexamethasone included in drinking water (non-atrophied control); B—water+dexamethasone (atrophied control); C—amylin (0.3 mg/kg/d)+theophylline+dexamethasone; D—amylin (1.0 mg/kg/d)+theophylline+dexamethasone; *—p≦0.05 compared to water; #—p≦0.05 compared to water+dexamethasone. Following the addition of the glucocorticoid, dexamethasone, to the drinking water (1.2 mg/kg/d), male mice were injected subcutaneously in the midscapular region twice daily with amylin, at the doses indicated above or vehicle control (physiological saline) for nine days. Amylin was co-administered with twice daily intra-peritoneal dosing of the phosphodiesterase inhibitor theophylline (30 mg/kg). Nine days following the initiation of dosing amylin, the medial gastrocnemius and tibialis anterior muscles were removed and weighed to determine the degree of atrophy.
# The glucocorticoid-induced atrophy model involves the administration of a glucocorticoid to the test animal, e.g., 1.2 mg/kg/day of dexamethasone in the drinking water. Typically, in untreated animals, skeletal muscle mass is reduced 30-50% following ten days of dexamethasone administration. Concomitantly with, or following glucocorticoid administration, test compounds are administered e.g., by injection or by continuous infusion to determine their effect on glucocorticoid-induced skeletal muscle atrophy. At various times following glucocorticoid administration, the extent of atrophy in the affected muscles is analyzed as described above for the denervation model.
# [4] = tested on: human subject in a comatose state; experiment: prophylactic treatment of skeletal muscle atrophy in comatose state (Example 13); format: in vivo; conditions: human 60 kg, 5 ml of 12 mg/ml amylin stock in 500 ml saline, slow i.v. infusion once each day
# Method: A human subject weighing 60 kg is admitted to the hospital in a comatose state. The subject is treated by this method to prevent atrophy of the skeletal muscle of the entire body due to disuse in the comatose state. Specifically, once each day while in the coma, the subject is administered, via slow intravenous infusion, approximately 500 ml of an aqueous solution that is prepared by addition of 5 ml of the following stock solution to 500 ml of sterile saline: […]
Compound,"effect on skeletal muscle atrophy, theophylline administered alone ([1]; casting disuse model, theophylline alone)","effect on skeletal muscle atrophy, theophylline administered alone ([2]; denervation model, theophylline alone)","effect on skeletal muscle atrophy, theophylline administered alone ([3]; glucocorticoid-induced model, theophylline alone)","disuse-induced (casting) atrophy of the tibialis anterior muscle (muscle weight) ([1]; male mice, casted right hind leg, amylin 0.1, 0.3, 1.0 mg/kg s.c. twice daily + theophylline 30 mg/kg i.p., ten days, FIG. 3A)","disuse-induced (casting) atrophy of the medial gastrocnemius muscle (muscle weight) ([1]; male mice, casted right hind leg, amylin 0.1, 0.3, 1.0 mg/kg s.c. twice daily + theophylline 30 mg/kg i.p., ten days, FIG. 3B)","hypertrophy of the tibialis anterior muscle of the non-casted leg ([1]; male mice, non-casted (normal) leg, amylin 0.1, 0.3, 1.0 mg/kg s.c. twice daily + theophylline 30 mg/kg i.p., ten days, FIG. 3A)","hypertrophy of the medial gastrocnemius muscle of the non-casted leg ([1]; male mice, non-casted (normal) leg, amylin 0.1, 0.3, 1.0 mg/kg s.c. twice daily + theophylline 30 mg/kg i.p., ten days, FIG. 3B)",skeletal muscle mass and function [4],"denervation-induced atrophy of the medial gastrocnemius muscle (muscle weight) ([2]; male mice, amylin 0.03, 0.1, 0.3 mg/kg s.c. twice daily + theophylline 30 mg/kg i.p. twice daily, nine days, FIG. 1)","glucocorticoid-induced atrophy of the tibialis anterior muscle (muscle weight) ([3]; male mice, dexamethasone 1.2 mg/kg/d in drinking water, amylin 0.3, 1.0 mg/kg/d s.c. twice daily + theophylline 30 mg/kg i.p., nine days, FIG. 2A)","glucocorticoid-induced atrophy of the medial gastrocnemius muscle (muscle weight) ([3]; male mice, dexamethasone 1.2 mg/kg/d in drinking water, amylin 0.3, 1.0 mg/kg/d s.c. twice daily + theophylline 30 mg/kg i.p., nine days, FIG. 2B)"
"Cn1c(=O)c2[nH]cnc2n(C)c1=O [Theophylline, theophylline]",no effect,no effect,no effect,,,,,,,,
"amylin (KCNTATCATQRLANFLVHSSNNFGAILSSTNVGSNTY; Islet amyloid polypeptide; UniProt P10997 34-70, looked up) [a 37 amino acid peptide; the ligand/agonist of the amylin receptors]",,,,inhibits disuse-induced atrophy,inhibits disuse-induced atrophy,statistically significant hypertrophy,statistically significant hypertrophy,measurable preservation of skeletal muscle mass and function,inhibits denervation-induced atrophy,inhibits glucocorticoid-induced muscle atrophy,inhibits glucocorticoid-induced muscle atrophy
